Test results as given in patent US9487515B2, “Compounds modulating c-fms and/or c-kit activity and uses therefor” (Plexxikon Inc., priority 2006, dated 2016).

What was measured:
c-kit = c-kit (Homo sapiens, UniProt P10721); test: c-kit assays of Examples 40 and 41 (AlphaScreen kinase assays at 10 and 100 μM ATP, 33P-ATP filter assay, M-07e SCF-stimulated proliferation and phosphorylation)
MAP4K4 (HGK) = MAP4K4 (HGK) (Homo sapiens, UniProt O95819); test: HGK biochemical assay (AlphaScreen); conditions: 10 μM ATP
Chain of MAP4K4 (HGK) (O95819 whole entry): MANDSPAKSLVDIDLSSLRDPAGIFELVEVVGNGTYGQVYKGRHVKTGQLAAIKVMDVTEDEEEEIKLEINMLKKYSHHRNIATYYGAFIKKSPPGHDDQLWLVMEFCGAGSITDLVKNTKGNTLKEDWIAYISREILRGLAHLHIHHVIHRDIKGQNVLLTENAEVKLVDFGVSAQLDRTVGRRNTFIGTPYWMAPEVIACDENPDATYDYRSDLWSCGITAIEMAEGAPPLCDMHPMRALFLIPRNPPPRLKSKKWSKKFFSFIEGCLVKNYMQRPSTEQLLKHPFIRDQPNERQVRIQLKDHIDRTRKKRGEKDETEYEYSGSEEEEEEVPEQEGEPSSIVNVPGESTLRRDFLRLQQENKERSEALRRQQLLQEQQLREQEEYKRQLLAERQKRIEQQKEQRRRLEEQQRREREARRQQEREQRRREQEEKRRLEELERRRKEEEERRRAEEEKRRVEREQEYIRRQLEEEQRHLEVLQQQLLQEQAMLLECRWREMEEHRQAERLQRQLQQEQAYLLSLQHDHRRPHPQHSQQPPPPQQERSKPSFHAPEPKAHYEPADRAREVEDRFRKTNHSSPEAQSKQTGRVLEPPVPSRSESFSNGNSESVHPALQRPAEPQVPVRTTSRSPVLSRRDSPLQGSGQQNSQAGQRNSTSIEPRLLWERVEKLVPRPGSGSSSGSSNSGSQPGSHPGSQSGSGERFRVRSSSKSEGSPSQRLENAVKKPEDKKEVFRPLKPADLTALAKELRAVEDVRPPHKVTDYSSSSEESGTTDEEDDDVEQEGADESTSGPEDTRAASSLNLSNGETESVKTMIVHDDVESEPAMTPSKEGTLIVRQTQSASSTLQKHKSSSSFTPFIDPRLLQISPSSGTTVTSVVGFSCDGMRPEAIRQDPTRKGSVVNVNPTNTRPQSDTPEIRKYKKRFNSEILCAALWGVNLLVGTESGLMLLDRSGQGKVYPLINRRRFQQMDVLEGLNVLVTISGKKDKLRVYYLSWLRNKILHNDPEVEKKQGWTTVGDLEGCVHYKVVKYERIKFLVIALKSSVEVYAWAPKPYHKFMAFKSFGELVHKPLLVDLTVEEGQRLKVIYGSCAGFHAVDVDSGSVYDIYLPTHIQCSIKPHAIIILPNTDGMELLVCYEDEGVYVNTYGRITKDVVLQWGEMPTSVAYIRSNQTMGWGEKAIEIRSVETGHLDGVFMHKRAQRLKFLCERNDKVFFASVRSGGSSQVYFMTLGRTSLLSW
Protocol: Substrate was 10 nM biotin-ERM (T567/T564/T558, Cell Signaling, Inc., cat#1344). MAP4K4 kinase was at 0.5 ng per sample.

TrkA kinase = biological target: T1, TrkA kinase (Homo sapiens, UniProt P04629); test: TrkA biochemical assay (AlphaScreen); conditions: 100 μM ATP
T1 construct: purchased Upstate Biotech #14-571
T1 sequence (P04629 33-796): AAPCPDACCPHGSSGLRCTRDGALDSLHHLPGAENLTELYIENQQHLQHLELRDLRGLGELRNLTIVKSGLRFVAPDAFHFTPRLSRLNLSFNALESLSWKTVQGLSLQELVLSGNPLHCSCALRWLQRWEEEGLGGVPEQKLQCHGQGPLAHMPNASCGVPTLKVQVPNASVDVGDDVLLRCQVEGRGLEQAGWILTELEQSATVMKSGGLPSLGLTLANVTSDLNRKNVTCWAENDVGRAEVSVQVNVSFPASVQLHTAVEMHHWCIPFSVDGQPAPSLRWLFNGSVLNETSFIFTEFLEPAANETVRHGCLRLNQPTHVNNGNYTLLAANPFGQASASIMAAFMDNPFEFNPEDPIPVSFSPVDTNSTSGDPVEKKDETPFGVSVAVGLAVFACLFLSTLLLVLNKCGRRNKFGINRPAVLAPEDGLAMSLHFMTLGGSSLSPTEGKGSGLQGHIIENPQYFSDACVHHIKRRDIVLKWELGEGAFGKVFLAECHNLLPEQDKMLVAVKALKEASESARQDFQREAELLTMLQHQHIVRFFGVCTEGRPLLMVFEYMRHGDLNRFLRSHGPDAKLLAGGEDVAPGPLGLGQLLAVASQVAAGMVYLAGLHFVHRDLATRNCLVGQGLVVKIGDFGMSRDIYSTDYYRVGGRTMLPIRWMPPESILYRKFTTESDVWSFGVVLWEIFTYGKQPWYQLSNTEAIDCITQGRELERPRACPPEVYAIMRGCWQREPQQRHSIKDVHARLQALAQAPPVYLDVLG

[1] = test system: cells with activating c-kit mutations; conditions: mutations in the catalytic region; cited from earlier work

Chain of c-kit (P10721 with tags, fused parts or gaps): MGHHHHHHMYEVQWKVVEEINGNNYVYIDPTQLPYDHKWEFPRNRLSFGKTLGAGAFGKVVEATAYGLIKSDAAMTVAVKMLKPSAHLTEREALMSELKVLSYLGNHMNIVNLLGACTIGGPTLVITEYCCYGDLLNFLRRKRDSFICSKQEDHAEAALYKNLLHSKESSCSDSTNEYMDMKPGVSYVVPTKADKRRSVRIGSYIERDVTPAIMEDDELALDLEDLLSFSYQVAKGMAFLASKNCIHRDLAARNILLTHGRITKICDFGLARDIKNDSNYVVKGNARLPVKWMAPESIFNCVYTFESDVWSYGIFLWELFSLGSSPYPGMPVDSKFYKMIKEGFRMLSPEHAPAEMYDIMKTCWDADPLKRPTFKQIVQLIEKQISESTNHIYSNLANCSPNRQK

Row | IC50 (c-kit) | IC50 (MAP4K4 (HGK)) | IC50 (TrkA kinase) | SMILES | inhibition of cells with c-kit mutations [1]
1 | < 1 µM | < 1 µM |  | Fc1cncc(CNc2ccc(Cc3c[nH]c4ncc(Cl)cc34)cn2)c1 [P-0324, [5-(5-chloro-1H-pyrrolo[2,3-b]pyridin-3-ylmethyl)-pyridin-2-yl]-(5-fluoro-pyridin-3-ylmethyl)-amine] | 
2 | < 1 µM | < 1 µM |  | Clc1ccc(CNc2nc(Cl)c(Cc3c[nH]c4ncc(Cl)cc34)s2)nc1 [P-0203, [4-Chloro-5-(5-chloro-1H-pyrrolo[2,3-b]pyridin-3-ylmethyl)-thiazol-2-yl]-(5-chloro-pyridin-2-ylmethyl)-amine] | 
3 | < 1 µM | < 1 µM |  | Fc1ccc(CNc2nc(Cl)c(Cc3c[nH]c4ncccc34)s2)cc1 [P-0156, [4-Chloro-5-(1H-pyrrolo[2,3-b]pyridin-3-ylmethyl)-thiazol-2-yl]-(4-fluoro-benzyl)-amine] | 
4 | < 1 µM |  | < 1 µM | O=C(Nc1cccc(F)c1)Nc1ccc(Cc2c[nH]c3ncccc23)cn1 [P-0412, 1-(3-fluoro-phenyl)-3-[5-(1H-pyrrolo[2,3-b]pyridin-3-ylmethyl)-pyridin-2-yl]-urea] | 
5 | < 1 µM |  | < 1 µM | FC(F)(F)Oc1ccccc1CNc1ncc(Cc2c[nH]c3ncccc23)cn1 [P-0303, [5-(1H-Pyrrolo[2,3-b]pyridin-3-ylmethyl)-pyrimidin-2-yl]-(2-trifluoromethoxy-benzyl)-amine] | 
6 | < 1 µM | < 1 µM |  | Fc1ccc(CNc2nc(Cl)c(Cc3c[nH]c4ncc(Cl)cc34)s2)cc1 [P-0195, [4-Chloro-5-(5-chloro-1H-pyrrolo[2,3-b]pyridin-3-ylmethyl)-thiazol-2-yl]-(4-fluoro-benzyl)-amine] | 
7 | < 1 µM | < 1 µM |  | Fc1ccc(CNc2nc(Cl)c(Cc3c[nH]c4ncccc34)s2)nc1 [P-0206, [4-Chloro-5-(1H-pyrrolo[2,3-b]pyridin-3-ylmethyl)-thiazol-2-yl]-(5-fluoro-pyridin-2-ylmethyl)-amine] | 
8 | < 1 µM | < 1 µM |  | Fc1ccc(CNc2nc(Cl)c(Cc3c[nH]c4ncc(Cl)cc34)s2)nc1 [P-0240, [4-Chloro-5-(5-chloro-1H-pyrrolo[2,3-b]pyridin-3-ylmethyl)-thiazol-2-yl]-(5-fluoro-pyridin-2-ylmethyl)-amine] | 
9 | < 1 µM | < 1 µM |  | Cc1nc(CNc2nc(Cl)c(Cc3c[nH]c4ncc(Cl)cc34)s2)cs1 [P-0201, [4-Chloro-5-(5-chloro-1H-pyrrolo[2,3-b]pyridin-3-ylmethyl)-thiazol-2-yl]-(2-methyl-thiazol-4-ylmethyl)-amine] | 
10 | < 1 µM | < 1 µM | < 1 µM | Cn1cc(-c2cnc3[nH]cc(Cc4ccc(NCc5ccc(C(F)(F)F)nc5)nc4Cl)c3c2)cn1 [P-0179, {6-Chloro-5-[5-(1-methyl-1H-pyrazol-4-yl)-1H-pyrrolo[2,3-b]pyridin-3-ylmethyl]-pyridin-2-yl}-(6-trifluoromethyl-pyridin-3-ylmethyl)-amine] | 
11 | < 1 µM | < 1 µM |  | Cc1cnc2[nH]cc(Cc3ccc(NCc4c(F)cccc4F)nc3)c2c1 [P-0341, (2,6-Difluoro-benzyl)-[5-(5-methyl-1H-pyrrolo[2,3-b]pyridin-3-ylmethyl)-pyridin-2-yl]-amine] | 
12 | < 1 µM |  | < 1 µM | Cc1nn(C(=O)NCCc2ccc(F)cc2)c(C)c1Cc1c[nH]c2ncc(Cl)cc12 [P-0157, 4-(5-Chloro-1H-pyrrolo[2,3-b]pyridin-3-ylmethyl)-3,5-dimethyl-pyrazole-1-carboxylic acid [2-(4-fluoro-phenyl)-ethyl]-amide] | 
13 | < 1 µM |  | < 1 µM | Cc1cccc(CNc2nc(Cl)c(Cc3c[nH]c4ncccc34)s2)n1 [P-0171, [4-Chloro-5-(1H-pyrrolo[2,3-b]pyridin-3-ylmethyl)-thiazol-2-yl]-(6-methyl-pyridin-2-ylmethyl)-amine] | 
14 | < 1 µM | < 1 µM |  | Cc1cccc(CNc2nc(Cl)c(Cc3c[nH]c4ncc(Cl)cc34)s2)n1 [P-0255, [4-Chloro-5-(5-chloro-1H-pyrrolo[2,3-b]pyridin-3-ylmethyl)-thiazol-2-yl]-(6-methyl-pyridin-2-ylmethyl)-amine] | 
15 | < 1 µM | < 1 µM |  | O=C(c1cnc(NCc2ccc(F)cc2)s1)c1c[nH]c2ncccc12 [P-0177, [2-(4-fluoro-benzylamino)-thiazol-5-yl]-(1H-pyrrolo[2,3-b]pyridin-3-yl)-methanone] | 
16 |  |  |  | Cc1ccc(NC(=O)c2ccc(CN3CCN(C)CC3)cc2)cc1Nc1nccc(-c2cccnc2)n1 [STI571] | did not inhibit the cells
17 | < 1 µM |  | < 1 µM | Cn1cc(-c2cnc3[nH]cc(Cc4cc(NCc5ccc(F)cc5)nn4C)c3c2)cn1 [P-0180, (4-Fluoro-benzyl)-{1-methyl-5-[5-(1-methyl-1H-pyrazol-4-yl)-1H-pyrrolo[2,3-b]pyridin-3-ylmethyl]-1H-pyrazol-3-yl}-amine] | 
